Results published in patent US20230348442A1, “GALECTIN-3 INHIBITING 2-HYDROXYCYCLOALKANE-1-CARBAMOYL DERIVATIVES” (Idorsia Pharmaceuticals Ltd, priority 2020, published 2023).

Biological target: human Gal-3 (hGal-3) (Homo sapiens (Human), UniProt P17931)
Experiment: competitive binding assay: binding of biotinylated hGal-3 to microplate-adsorbed asialofetuin (ASF), spectrophotometric
Conditions: Activity on hGal-3; mean values of several measurements
Description: Evaluation of Compound Inhibitory Activity (IC50)
The inhibitory activity of compounds is determined in competitive binding assays. This spectrophotometric assay measures the binding of biotinylated human Gal-3 (hGal-3) or human Gal-1 (hGal-1), respectively, to a microplate-adsorbed glycoprotein, asialofetuin (ASF) (Proc Natl Acad Sci USA. 2013 Mar. 26; 110(13):5052-7.). Alternatively, and preferably, a human Gal-1 version in which all six cysteines are substituted by serines may be used.
Briefly, compounds are serially diluted in DMSO (working dilutions). ASF-coated 384 well plates are supplemented with 22.8 μL/well of biotinylated hGal-3 or hGal-1 in assay buffer (i.e. 300-1000 ng/mL biotinylated hGal-3 or hGal-1) to which 1.2 μL of compound working dilutions are added and mixed.
Plates are incubated for 3 hours at 4° C., then washed with cold assay buffer (3×50 uL), incubated for 1 hour with 25 μL/well of a streptavidin-peroxidase solution (diluted in assay buffer to 80 ng/mL) at 4° C., followed by further washing steps with assay buffer (3×50 uL). Finally, 25 μL/well of ABTS substrate is added.
The calculated IC50 values may fluctuate depending on the daily assay performance. Fluctuations of this kind are known to those skilled in the art. IC50 values from several measurements are given as mean values.

Sequence of human Gal-3 (hGal-3) (P17931 whole entry): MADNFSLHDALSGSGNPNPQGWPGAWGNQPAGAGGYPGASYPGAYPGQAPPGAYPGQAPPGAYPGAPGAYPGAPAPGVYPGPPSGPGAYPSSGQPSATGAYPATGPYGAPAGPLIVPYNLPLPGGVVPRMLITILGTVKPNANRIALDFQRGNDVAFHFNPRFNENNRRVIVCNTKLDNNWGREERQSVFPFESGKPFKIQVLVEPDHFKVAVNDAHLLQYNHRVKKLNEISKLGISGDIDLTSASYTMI

| IC50 | Structure (SMILES) |
| --- | --- |
| 36.5 nM | CO[C@@H]1[C@@H](n2cc(-c3cc(F)c(F)c(F)c3)nn2)[C@@H](O)[C@@H](CO)O[C@H]1C(=O)N(c1cccc(Cl)c1)[C@H]1CCC[C@@H]1O [Example 1.1.1, (2R,3R,4S,5R,6R)—N-(3-chlorophenyl)-5-hydroxy-N-((1S,2S)-2-hydroxycyclopentyl)-6-(hydroxymethyl)-3-methoxy-4-(4-(3,4,5-trifluorophenyl)-1H-1,2,3-triazol-1-yl)tetrahydro-2H-pyran-2-carboxamide] |
| 34.8 nM | CO[C@@H]1[C@@H](n2cc(-c3cc(F)c(F)c(F)c3)nn2)[C@@H](O)[C@@H](CO)O[C@H]1C(=O)N(c1cc(C)cc(Cl)c1)[C@H]1CCC[C@@H]1O [Example 1.1.3, (2R,3R,4S,5R,6R)-N-(3-chloro-5-methylphenyl)-5-hydroxy-N-((1S,2S)-2-hydroxycyclopentyl)-6-(hydroxymethyl)-3-methoxy-4-(4-(3,4,5-trifluorophenyl)-1H-1,2,3-triazol-1-yl)tetrahydro-2H-pyran-2-carboxamide] |
| 27.3 nM | CO[C@@H]1[C@@H](n2cc(-c3cc(F)c(F)c(F)c3)nn2)[C@@H](O)[C@@H](CO)O[C@H]1C(=O)N(c1cc(Cl)cc(C#N)c1)[C@H]1CCC[C@@H]1O [Example 1.1.4, (2R,3R,4S,5R,6R)-N-(3-chloro-5-cyanophenyl)-5-hydroxy-N-((1S,2S)-2-hydroxycyclopentyl)-6-(hydroxymethyl)-3-methoxy-4-(4-(3,4,5-trifluorophenyl)-1H-1,2,3-triazol-1-yl)tetrahydro-2H-pyran-2-carboxamide] |
| 23 nM | CO[C@@H]1[C@@H](n2cc(-c3cc(F)c(F)c(F)c3)nn2)[C@@H](O)[C@@H](CO)O[C@H]1C(=O)N(c1cc(Br)cc(C#N)c1)[C@H]1CCC[C@@H]1O [Example 1.1.5, (2R,3R,4S,5R,6R)-N-(3-bromo-5-cyanophenyl)-5-hydroxy-N-((1S,2S)-2-hydroxycyclopentyl)-6-(hydroxymethyl)-3-methoxy-4-(4-(3,4,5-trifluorophenyl)-1H-1,2,3-triazol-1-yl)tetrahydro-2H-pyran-2-carboxamide] |
| 98.8 nM | CO[C@@H]1[C@@H](n2cc(-c3cc(F)c(F)c(F)c3)nn2)[C@@H](O)[C@@H](CO)O[C@H]1C(=O)N(c1cc(Br)cc(C#N)c1)[C@@H]1CCC[C@H]1O [Example 1.1.5R, (2R,3R,4S,5R,6R)-N-(3-bromo-5-cyanophenyl)-5-hydroxy-N-((1R,2R)-2-hydroxycyclopentyl)-6-(hydroxymethyl)-3-methoxy-4-(4-(3,4,5-trifluorophenyl)-1H-1,2,3-triazol-1-yl)tetrahydro-2H-pyran-2-carboxamide] |
| 42.4 nM | CO[C@@H]1[C@@H](n2cc(-c3cc(F)c(F)c(F)c3)nn2)[C@@H](O)[C@@H](CO)O[C@H]1C(=O)N(c1cccc(I)c1)[C@H]1CCC[C@@H]1O [Example 1.1.6, (2R,3R,4S,5R,6R)-5-hydroxy-N-((1S,2S)-2-hydroxycyclopentyl)-6-(hydroxymethyl)-N-(3-iodophenyl)-3-methoxy-4-(4-(3,4,5-trifluorophenyl)-1H-1,2,3-triazol-1-yl)tetrahydro-2H-pyran-2-carboxamide] |
| 261 nM | CO[C@@H]1[C@@H](n2cc(-c3cc(F)c(F)c(F)c3)nn2)[C@@H](O)[C@@H](CO)O[C@H]1C(=O)N(c1cccc(I)c1)[C@@H]1CCC[C@H]1O [Example 1.1.6R, (2R,3R,4S,5R,6R)-5-hydroxy-N-((1R,2R)-2-hydroxycyclopentyl)-6-(hydroxymethyl)-N-(3-iodophenyl)-3-methoxy-4-(4-(3,4,5-trifluorophenyl)-1H-1,2,3-triazol-1-yl)tetrahydro-2H-pyran-2-carboxamide] |
| 78.8 nM | CO[C@@H]1[C@@H](n2cc(-c3cc(F)c(F)c(F)c3)nn2)[C@@H](O)[C@@H](CO)O[C@H]1C(=O)N(c1cccc(Br)c1)[C@H]1CCC[C@@H]1O [Example 1.1.10, (2R,3R,4S,5R,6R)-N-(3-bromophenyl)-5-hydroxy-N-((1S,2S)-2-hydroxycyclopentyl)-6-(hydroxymethyl)-3-methoxy-4-(4-(3,4,5-trifluorophenyl)-1H-1,2,3-triazol-1-yl)tetrahydro-2H-pyran-2-carboxamide] |
| 376 nM | CO[C@@H]1[C@@H](n2cc(-c3cc(F)c(F)c(F)c3)nn2)[C@@H](O)[C@@H](CO)O[C@H]1C(=O)N(c1cccc(Br)c1)[C@@H]1CCC[C@H]1O [Example 1.1.10R, (2R,3R,4S,5R,6R)-N-(3-bromophenyl)-5-hydroxy-N-((1R,2R)-2-hydroxycyclopentyl)-6-(hydroxymethyl)-3-methoxy-4-(4-(3,4,5-trifluorophenyl)-1H-1,2,3-triazol-1-yl)tetrahydro-2H-pyran-2-carboxamide] |
| 31 nM | CO[C@@H]1[C@@H](n2cc(-c3cc(F)c(F)c(F)c3)nn2)[C@@H](O)[C@@H](CO)O[C@H]1C(=O)N(c1cc(Br)cc(Br)c1)[C@H]1CCC[C@@H]1O [Example 1.1.11, (2R,3R,4S,5R,6R)-N-(3,5-dibromophenyl)-5-hydroxy-N-((1S,2S)-2-hydroxycyclopentyl)-6-(hydroxymethyl)-3-methoxy-4-(4-(3,4,5-trifluorophenyl)-1H-1,2,3-triazol-1-yl)tetrahydro-2H-pyran-2-carboxamide] |
| 390 nM | CO[C@@H]1[C@@H](n2cc(-c3cc(F)c(F)c(F)c3)nn2)[C@@H](O)[C@@H](CO)O[C@H]1C(=O)N(c1cc(Br)cc(Br)c1)[C@@H]1CCC[C@H]1O [Example 1.1.11R, (2R,3R,4S,5R,6R)-N-(3,5-dibromophenyl)-5-hydroxy-N-((1R,2R)-2-hydroxycyclopentyl)-6-(hydroxymethyl)-3-methoxy-4-(4-(3,4,5-trifluorophenyl)-1H-1,2,3-triazol-1-yl)tetrahydro-2H-pyran-2-carboxamide] |
| 34.7 nM | CO[C@@H]1[C@@H](n2cc(-c3cc(F)c(F)c(F)c3)nn2)[C@@H](O)[C@@H](CO)O[C@H]1C(=O)N(c1cc(C)cc(Br)c1)[C@H]1CCC[C@@H]1O [Example 1.1.12, (2R,3R,4S,5R,6R)-N-(3-bromo-5-methylphenyl)-5-hydroxy-N-((1S,2S)-2-hydroxycyclopentyl)-6-(hydroxymethyl)-3-methoxy-4-(4-(3,4,5-trifluorophenyl)-1H-1,2,3-triazol-1-yl)tetrahydro-2H-pyran-2-carboxamide] |

| Structure (SMILES) | IC50 |
| --- | --- |
| CO[C@@H]1[C@@H](n2cc(-c3cc(F)c(F)c(F)c3)nn2)[C@@H](O)[C@@H](CO)O[C@H]1C(=O)N(c1cc(Cl)cc(Cl)c1)[C@H]1CCC[C@@H]1O [Example 1.1.2, (2R,3R,4S,5R,6R)-N-(3,5-dichlorophenyl)-5-hydroxy-N-((1S,2S)-2-hydroxycyclopentyl)-6-(hydroxymethyl)-3-methoxy-4-(4-(3,4,5-trifluorophenyl)-1H-1,2,3-triazol-1-yl)tetrahydro-2H-pyran-2-carboxamide] | 37.4 nM |
| CO[C@@H]1[C@@H](n2cc(-c3cc(F)c(F)c(F)c3)nn2)[C@@H](O)[C@@H](CO)O[C@H]1C(=O)N(c1cc(Cl)cc(Cl)c1)[C@@H]1CCC[C@H]1O [Example 1.1.2R, (2R,3R,4S,5R,6R)-N-(3,5-dichlorophenyl)-5-hydroxy-N-((1R,2R)-2-hydroxycyclopentyl)-6-(hydroxymethyl)-3-methoxy-4-(4-(3,4,5-trifluorophenyl)-1H-1,2,3-triazol-1-yl)tetrahydro-2H-pyran-2-carboxamide] | 104 nM |
